≈ marks a conversion by molar mass, not a printed value. Where a SMILES comes first, the peptide text is derived from it. The star is where a group is joined. Palmitoyl = CCCCCCCCCCCCCCCC(=O)*; Myristoyl = CCCCCCCCCCCCCC(=O)*; Lauroyl = CCCCCCCCCCCC(=O)*; Decanoyl = CCCCCCCCCC(=O)*; Octanoyl = CCCCCCCC(=O)*; Hexanoyl = CCCCCC(=O)*
Tests used:
Assay type in all cases: functional
Candida albicans = assay: Antimicrobial activity against Candida albicans ATCC 14053 after 17 to 20 hrs by serial dilution method
Escherichia coli = assay: Antimicrobial activity against Escherichia coli ATCC 25922 after 17 to 20 hrs by serial dilution method
Staphylococcus aureus = assay: Antimicrobial activity against Staphylococcus aureus ATCC 12600 after 17 to 20 hrs by serial dilution method

Row | SMILES | MIC (Candida albicans) [mg/L] | MIC (Escherichia coli) [mg/L] | MIC (Staphylococcus aureus) [mg/L]
1 | CCCCCCCCCC(=O)N[C@@H](CCCNC(=N)N)C(=O)N[C@@H](Cc1c[nH]c2ccccc12)C(=O)N[C@@H](CCCNC(=N)N)C(N)=O (Decanoyl-Arg-Trp-Arg-NH2) | > 62.5 | 15.6 (≈ 23.3 µM) | 7.8 (≈ 11.6 µM)
2 | CCCCCCCCCC(=O)N[C@@H](CCCCN)C(=O)N[C@H](C(=O)N[C@@H](CCCCN)C(=O)N[C@@H](CCCNC(=N)N)C(=O)N[C@@H](Cc1c[nH]c2ccccc12)C(=O)N[C@@H](CCCNC(=N)N)C(N)=O)[C@@H](C)CC (Decanoyl-KIKRWR-NH2) | > 62.5 | 31.2 (≈ 30 µM) | 15.6 (≈ 15 µM)
3 | CCCCCCCCCC(=O)N[C@@H](CCCCN)C(=O)N[C@H](C(=O)N[C@@H](CCCCN)C(=O)N[C@@H](CCCNC(=N)N)C(=O)N[C@@H](Cc1c[nH]c2ccccc12)C(=O)N[C@@H](Cc1c[nH]c2ccccc12)C(=O)N[C@@H](CCCNC(=N)N)C(N)=O)[C@@H](C)CC (Decanoyl-KIKRWWR-NH2) | > 62.5 | 7.8 (≈ 6.36 µM) | 3.9 (≈ 3.18 µM)
4 | CCCCCCCCCC(=O)N[C@@H](CCCCN)C(=O)N[C@H](C(=O)N[C@@H](CCCNC(=N)N)C(=O)N[C@@H](Cc1c[nH]c2ccccc12)C(=O)N[C@@H](Cc1c[nH]c2ccccc12)C(=O)N[C@@H](CCCNC(=N)N)C(N)=O)[C@@H](C)CC (Decanoyl-KIRWWR-NH2) | > 62.5 | 15.6 (≈ 14.2 µM) | 3.9 (≈ 3.55 µM)
5 | CCCCCCCCCC(=O)N[C@@H](CCCCN)C(=O)N[C@H](C(=O)N[C@@H](Cc1c[nH]c2ccccc12)C(=O)N[C@@H](Cc1c[nH]c2ccccc12)C(=O)N[C@@H](CCCCN)C(N)=O)[C@@H](C)CC (Decanoyl-KIWWK-NH2) | 15.6 (≈ 17.1 µM) | 7.8 (≈ 8.54 µM) | 3.9 (≈ 4.27 µM)
6 | CCCCCCCCCC(=O)N[C@@H](CCCCN)C(=O)N[C@@H](CCCCN)C(=O)N[C@H](C(=O)N[C@@H](CCCNC(=N)N)C(=O)N[C@@H](Cc1c[nH]c2ccccc12)C(=O)N[C@@H](CCCNC(=N)N)C(N)=O)[C@@H](C)CC (Decanoyl-KKIRWR-NH2) | > 62.5 | 7.8 (≈ 7.5 µM) | 7.8 (≈ 7.5 µM)
7 | CCCCCCCCCC(=O)N[C@@H](CCCCN)C(=O)N[C@@H](CCCCN)C(=O)N[C@@H](Cc1c[nH]c2ccccc12)C(=O)N[C@@H](CCCCN)C(N)=O (Decanoyl-KKWK-NH2) | > 62.5 | > 31.2 | 31.2 (≈ 42 µM)
8 | CCCCCCCCCC(=O)N[C@@H](CCCCN)C(=O)N[C@@H](CCCCN)C(=O)N[C@@H](Cc1c[nH]c2ccccc12)C(=O)N[C@@H](Cc1c[nH]c2ccccc12)C(N)=O (Decanoyl-KKWW-NH2) | 31.2 (≈ 39 µM) | 7.8 (≈ 9.75 µM) | 3.9 (≈ 4.87 µM)
9 | CCCCCCCCCC(=O)N[C@@H](CCCCN)C(=O)N[C@@H](CCCNC(=N)N)C(=O)N[C@H](C(=O)N[C@@H](Cc1c[nH]c2ccccc12)C(=O)N[C@@H](Cc1c[nH]c2ccccc12)C(=O)N[C@@H](CCCNC(=N)N)C(N)=O)[C@@H](C)CC (Decanoyl-KRIWWR-NH2) | > 62.5 | 7.8 (≈ 7.11 µM) | 3.9 (≈ 3.55 µM)
10 | CCCCCCCCCC(=O)N[C@@H](CCCCN)C(=O)N[C@@H](Cc1c[nH]c2ccccc12)C(=O)N[C@@H](Cc1c[nH]c2ccccc12)C(=O)N[C@@H](CCCCN)C(N)=O (Decanoyl-KWWK-NH2) | 31.2 (≈ 39 µM) | 15.6 (≈ 19.5 µM) | 7.8 (≈ 9.75 µM)
11 | CCCCCCCCCC(=O)N[C@@H](CCCNC(=N)N)C(=O)N[C@@H](Cc1c[nH]c2ccccc12)C(=O)N[C@@H](CCCNC(=N)N)C(=O)N[C@@H](Cc1c[nH]c2ccccc12)C(N)=O (Decanoyl-RWRW-NH2) | > 62.5 | 15.6 (≈ 18.2 µM) | 7.8 (≈ 9.11 µM)
12 | CCCCCCCCCC(=O)N[C@@H](CCCNC(=N)N)C(=O)N[C@@H](Cc1c[nH]c2ccccc12)C(=O)N[C@@H](Cc1c[nH]c2ccccc12)C(=O)N[C@@H](CCCNC(=N)N)C(N)=O (Decanoyl-RWWR-NH2) | 15.6 (≈ 18.2 µM) | 15.6 (≈ 18.2 µM) | 7.8 (≈ 9.11 µM)
13 | CCCCCC(=O)N[C@@H](CCCNC(=N)N)C(=O)N[C@@H](CCCCN)C(=O)N[C@@H](Cc1c[nH]c2ccccc12)C(=O)N[C@@H](Cc1c[nH]c2ccccc12)C(=O)N[C@@H](CCCCN)C(N)=O (Hexanoyl-RKWWK-NH2) | – | > 62.5 | 31.2 (≈ 34.7 µM)
14 | CCCCCCCCCCCC(=O)N[C@@H](CCCNC(=N)N)C(=O)N[C@@H](CCCCN)C(=O)N[C@@H](Cc1c[nH]c2ccccc12)C(=O)N[C@@H](Cc1c[nH]c2ccccc12)C(=O)N[C@@H](CCCCN)C(N)=O (Lauroyl-RKWWK-NH2) | – | 7.8 (≈ 7.92 µM) | 7.8 (≈ 7.92 µM)
15 | CCCCCCCCCCCCCC(=O)N[C@@H](CCCNC(=N)N)C(=O)N[C@@H](Cc1c[nH]c2ccccc12)C(=O)N[C@@H](CCCNC(=N)N)C(N)=O (Myristoyl-Arg-Trp-Arg-NH2) | > 62.5 | 15.6 (≈ 21.5 µM) | 15.6 (≈ 21.5 µM)
16 | CCCCCCCCCCCCCC(=O)N[C@@H](CCCCN)C(=O)N[C@H](C(=O)N[C@@H](CCCCN)C(=O)N[C@@H](CCCNC(=N)N)C(=O)N[C@@H](Cc1c[nH]c2ccccc12)C(=O)N[C@@H](CCCNC(=N)N)C(N)=O)[C@@H](C)CC (Myristoyl-KIKRWR-NH2) | > 62.5 | 15.6 (≈ 14.2 µM) | 3.9 (≈ 3.56 µM)
17 | CCCCCCCCCCCCCC(=O)N[C@@H](CCCCN)C(=O)N[C@H](C(=O)N[C@@H](CCCCN)C(=O)N[C@@H](CCCNC(=N)N)C(=O)N[C@@H](Cc1c[nH]c2ccccc12)C(=O)N[C@@H](Cc1c[nH]c2ccccc12)C(=O)N[C@@H](CCCNC(=N)N)C(N)=O)[C@@H](C)CC (Myristoyl-KIKRWWR-NH2) | > 62.5 | 31.2 (≈ 24.3 µM) | 15.6 (≈ 12.2 µM)
18 | CCCCCCCCCCCCCC(=O)N[C@@H](CCCCN)C(=O)N[C@H](C(=O)N[C@@H](CCCNC(=N)N)C(=O)N[C@@H](Cc1c[nH]c2ccccc12)C(=O)N[C@@H](Cc1c[nH]c2ccccc12)C(=O)N[C@@H](CCCNC(=N)N)C(N)=O)[C@@H](C)CC (Myristoyl-KIRWWR-NH2) | > 62.5 | 31.2 (≈ 27 µM) | 15.6 (≈ 13.5 µM)
19 | CCCCCCCCCCCCCC(=O)N[C@@H](CCCCN)C(=O)N[C@H](C(=O)N[C@@H](Cc1c[nH]c2ccccc12)C(=O)N[C@@H](Cc1c[nH]c2ccccc12)C(=O)N[C@@H](CCCCN)C(N)=O)[C@@H](C)CC (Myristoyl-KIWWK-NH2) | 31.2 (≈ 32.2 µM) | 31.2 (≈ 32.2 µM) | 7.8 (≈ 8.05 µM)
20 | CCCCCCCCCCCCCC(=O)N[C@@H](CCCCN)C(=O)N[C@@H](CCCCN)C(=O)N[C@H](C(=O)N[C@@H](CCCNC(=N)N)C(=O)N[C@@H](Cc1c[nH]c2ccccc12)C(=O)N[C@@H](CCCNC(=N)N)C(N)=O)[C@@H](C)CC (Myristoyl-KKIRWR-NH2) | > 62.5 | 7.8 (≈ 7.12 µM) | 3.9 (≈ 3.56 µM)
21 | CCCCCCCCCCCCCC(=O)N[C@@H](CCCCN)C(=O)N[C@@H](CCCCN)C(=O)N[C@@H](Cc1c[nH]c2ccccc12)C(=O)N[C@@H](CCCCN)C(N)=O (Myristoyl-KKWK-NH2) | > 62.5 | 7.8 (≈ 9.77 µM) | 3.9 (≈ 4.89 µM)
22 | CCCCCCCCCCCCCC(=O)N[C@@H](CCCCN)C(=O)N[C@@H](CCCCN)C(=O)N[C@@H](Cc1c[nH]c2ccccc12)C(=O)N[C@@H](Cc1c[nH]c2ccccc12)C(N)=O (Myristoyl-KKWW-NH2) | 15.6 (≈ 18.2 µM) | 15.6 (≈ 18.2 µM) | 7.8 (≈ 9.11 µM)
23 | CCCCCCCCCCCCCC(=O)N[C@@H](CCCCN)C(=O)N[C@@H](CCCNC(=N)N)C(=O)N[C@H](C(=O)N[C@@H](Cc1c[nH]c2ccccc12)C(=O)N[C@@H](Cc1c[nH]c2ccccc12)C(=O)N[C@@H](CCCNC(=N)N)C(N)=O)[C@@H](C)CC (Myristoyl-KRIWWR-NH2) | > 62.5 | 15.6 (≈ 13.5 µM) | 7.8 (≈ 6.76 µM)
24 | CCCCCCCCCCCCCC(=O)N[C@@H](CCCNC(=N)N)C(=O)N[C@H](C(=O)N[C@@H](CCCCN)C(=O)N[C@@H](Cc1c[nH]c2ccccc12)C(=O)N[C@@H](Cc1c[nH]c2ccccc12)C(=O)N[C@@H](CCCCN)C(N)=O)[C@@H](C)CC (Myristoyl-RIKWWK-NH2) | > 62.5 | 15.6 (≈ 13.9 µM) | 7.8 (≈ 6.93 µM)
25 | CCCCCCCCCCCCCC(=O)N[C@@H](CCCNC(=N)N)C(=O)N[C@@H](CCCCN)C(=O)N[C@@H](Cc1c[nH]c2ccccc12)C(=O)N[C@@H](Cc1c[nH]c2ccccc12)C(=O)N[C@@H](CCCCN)C(N)=O (Myristoyl-RKWWK-NH2) | > 62.5 | 15.6 (≈ 15.4 µM) | 7.8 (≈ 7.7 µM)
26 | CCCCCCCCCCCCCC(=O)N[C@@H](CCCNC(=N)N)C(=O)N[C@@H](Cc1c[nH]c2ccccc12)C(=O)N[C@@H](CCCNC(=N)N)C(=O)N[C@@H](Cc1c[nH]c2ccccc12)C(N)=O (Myristoyl-RWRW-NH2) | > 62.5 | 15.6 (≈ 17.1 µM) | 15.6 (≈ 17.1 µM)
27 | CCCCCCCC(=O)N[C@@H](CCCNC(=N)N)C(=O)N[C@@H](CCCCN)C(=O)N[C@@H](Cc1c[nH]c2ccccc12)C(=O)N[C@@H](Cc1c[nH]c2ccccc12)C(=O)N[C@@H](CCCCN)C(N)=O (Octanoyl-RKWWK-NH2) | – | 62.5 (≈ 67.3 µM) | 15.6 (≈ 16.8 µM)
28 | CCCCCCCCCCCCCCCC(=O)N[C@@H](CCCNC(=N)N)C(=O)N[C@@H](CCCCN)C(=O)N[C@@H](Cc1c[nH]c2ccccc12)C(=O)N[C@@H](Cc1c[nH]c2ccccc12)C(=O)N[C@@H](CCCCN)C(N)=O (Palmitoyl-RKWWK-NH2) | – | 31.2 (≈ 30 µM) | 31.2 (≈ 30 µM)

Reference: ChEMBL document CHEMBL3286360, “Tuning the antimicrobial pharmacophore to enable discovery of short lipopeptides with multiple modes of action” (Eur J Med Chem, 2014)
